In patent US8883801B2, “Substituted pyrazolo[1,5-a]pyrimidines as mTOR inhibitors” (Merck Sharp & Dohme Corp., priority 2010, dated 2014):

Experiments:
[1] = tested on: mTORC2 activity: phosphorylated AKT Ser473 (pAKT S473) in PC3 cells; test: mTOR target engagement assay, immunofluorescent cell-based, mTORC2 readout; settings: Homo sapiens, PC-3, 1.5 h, rated class, 90 min treatment
Method in brief: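 Read-out is immunofluorescence intensity, normalized to DMSO-only wells and fitted to a sigmoidal Hill equation for IC50. The mTORC1 arm probes phospho-4E-BP1 Thr37/46 and the mTORC2 arm phospho-AKT Ser473.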

[2] = target: human mTOR enzyme (Homo sapiens, UniProt P42345); test: HTRF mTOR enzyme (kinase) assay; type: biochemical; settings: rated class; 5 μM ATP, 0.2 μM GST-S6K; read-out: hMTOR IC50
Sequence of human mTOR enzyme (P42345 1360-2549 limits assumed): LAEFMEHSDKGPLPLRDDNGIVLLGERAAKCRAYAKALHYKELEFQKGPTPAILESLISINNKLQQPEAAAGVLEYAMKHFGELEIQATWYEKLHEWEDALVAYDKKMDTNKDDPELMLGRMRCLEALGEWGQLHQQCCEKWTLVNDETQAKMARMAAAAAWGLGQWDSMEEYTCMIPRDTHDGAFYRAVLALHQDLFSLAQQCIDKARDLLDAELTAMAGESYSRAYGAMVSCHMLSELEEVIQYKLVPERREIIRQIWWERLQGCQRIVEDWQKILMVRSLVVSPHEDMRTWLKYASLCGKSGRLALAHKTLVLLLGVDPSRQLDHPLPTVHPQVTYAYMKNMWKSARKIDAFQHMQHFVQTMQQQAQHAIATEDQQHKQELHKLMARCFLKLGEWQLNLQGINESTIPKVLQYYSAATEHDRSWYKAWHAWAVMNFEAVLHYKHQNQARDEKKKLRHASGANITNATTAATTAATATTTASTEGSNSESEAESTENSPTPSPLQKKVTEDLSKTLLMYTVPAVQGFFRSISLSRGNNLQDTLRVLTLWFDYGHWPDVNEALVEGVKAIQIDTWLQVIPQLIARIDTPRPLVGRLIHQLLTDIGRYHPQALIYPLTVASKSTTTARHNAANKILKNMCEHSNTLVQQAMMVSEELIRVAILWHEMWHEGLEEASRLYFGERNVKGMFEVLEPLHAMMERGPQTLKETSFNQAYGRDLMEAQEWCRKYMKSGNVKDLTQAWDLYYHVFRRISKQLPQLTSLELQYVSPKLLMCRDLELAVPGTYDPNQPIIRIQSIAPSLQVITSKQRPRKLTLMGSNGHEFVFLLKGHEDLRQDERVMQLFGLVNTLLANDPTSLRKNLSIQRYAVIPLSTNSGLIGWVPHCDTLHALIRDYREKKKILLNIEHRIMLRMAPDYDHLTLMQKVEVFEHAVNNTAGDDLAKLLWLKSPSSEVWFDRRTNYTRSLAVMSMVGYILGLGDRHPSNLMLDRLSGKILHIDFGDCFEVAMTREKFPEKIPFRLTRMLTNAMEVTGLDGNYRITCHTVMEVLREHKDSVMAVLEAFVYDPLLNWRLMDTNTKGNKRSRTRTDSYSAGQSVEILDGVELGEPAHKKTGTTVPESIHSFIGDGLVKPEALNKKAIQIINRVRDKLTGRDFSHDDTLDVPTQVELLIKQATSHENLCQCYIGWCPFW

[3] = tested on: mTORC1 activity: phosphorylated 4E-BP1 Thr37/46 (p4E-BP1 Thr37/46) in PC3 cells; test: mTOR target engagement assay, immunofluorescent cell-based, mTORC1 readout; settings: Homo sapiens, PC-3, 1.5 h, rated class, 90 min treatment, read-out: P4EBP1 IC50
Experimental: The target engagement of mTOR kinase inhibitors was evaluated using an immunofluorescent cell-based assay. In this assay, inhibition of mTORC1 activity was measured by the reduction in the level of phosphorylated 4E-BP1Thr37/46 (p4E-BP1 Thr37/46), and inhibition of mTORC2 activity was measured by the reduction of phosphorylated AKTSer473 (pAKT S473).
PC3 cells (prostate tumor cell-line that contains a mutation in the tumor suppressor PTEN, that promotes the phosphorylation and activation of AKT and 4E-BP1) were used in the immunofluorescence assay. PC3 cells were seeded on 384 well plates (black clear bottom, Matrix #4332) overnight. PC3 cells were then treated with 40 μl of the serially diluted test compounds (in 5% fetal bovine serum, F12 medium containing 0.25% DMSO) for ninety minutes at 37° C. The test compound solution was removed, and the plates were washed gently two times with 25 μl phosphate buffered saline (PBS). The cells were fixed by adding 25 μl of Prefer reagent (from Anatech LTD, Cat#414, a glyoxal fixative for fixing proteins within a cell) for sixty minutes followed by three washes with PBS. 5% Goat serum in PBS/0.3% Triton was used to block non-specific binding (60 minutes).
The primary antibodies targeting pAKT S473 and p4E-BP1 Thr37/46 were diluted into PBS/0.3% Triton and incubated with the cells overnight at 4° C. The antibodies targeting pAKTS473 (Cat#4085, Cell signaling) and p4E-BP1 Thr37/46 (Cat#2855, Cell signaling) were used at a 1:100 dilution. Plates were washed three times with PBS/0.1% Tween 20 before adding the secondary antibody at a 1:200 dilution. (goat anti-rabbit containing a fluorescent label, Alexa Fluor 488, Cat#A11008, Invitrogen) in PBS/0.3% Triton for 60 minutes.
Finally, the plates were washed three times with PBS/0.1% Tween 20 and the fluorescent intensity was read using an Analyst HT from Molecular Devices. The fluorescent intensity values from the serially diluted compound treatment group were analyzed using the Xlfit 4 program ([…]) (Formula 205: Y=Bottom+(Top-Bottom)/(1+(IC50/X)^Hillslope) to generate the IC50 value. Where Top is the maximum signal without Compound (+DMSO only) and Bottom represents maximum inhibition. Y is the fluorescence at some compound concentration. The control used to determine the fluorescent intensities for 100% pAKT S473 or 100% phosphorylated p4E-BP1 Thr37/46 were measured from untreated wells that contained only DMSO, instead of test compound.

| SMILES | IC50 [1] [nM] | IC50 [2] [nM] | IC50 [3] [nM] |
| --- | --- | --- | --- |
| COCCO[C@]1(C(=O)O)CC[C@@H](c2nc3c(-c4ccc(-c5ccccc5)nc4)cnn3c(N)c2S(C)(=O)=O)CC1 [Compound 44, (1R,4R)-4-(7-amino-6-(methylsulfonyl)-3-(6-phenylpyridin-3-yl)pyrazolo[1,5-a]pyrimidin-5-yl)-1-(2-methoxyethoxy) cyclohexanecarboxylic acid] | 100 to 1000 | 1 to 100 | 100 to 1000 |
| COCCO[C@]1(C(=O)NOC)CC[C@@H](c2nc3c(-c4ccc(-c5ccccc5)nc4)cnn3c(N)c2C(C)=O)CC1 [Compound 103, (1R,4R)-4-(6-acetyl-7-amino-3-(6-phenylpyridin-3-yl)pyrazolo[1,5-a]pyrimidin-5-yl)-N-methoxy-1-(2-methoxyethoxy)-cyclohexane-carboxamide] | 100 to 1000 | 1 to 100 | 100 to 1000 |
| C[C@]1(C(=O)O)CC[C@H](c2nc3c(-c4ccc(-c5ccccc5)nc4)cnn3c(N)c2C#N)CC1 [Compound 25, (1R,4R)-4-(7-amino-6-cyano-3-(6-phenylpyridin-3-yl)pyrazolo[1,5-a]pyrimidin-5-yl)-1-methylcyclohexanecarboxylic acid] | 100 to 1000 | 1 to 100 | 100 to 1000 |
| COCCNC(=O)[C@]1(OCCOC)CC[C@H](c2nc3c(-c4cnn(-c5ccccc5)c4)cnn3c(N)c2S(C)(=O)=O)CC1 [Compound 93, (1R,4R)-4-(7-amino-6-(methylsulfonyl)-3-(1-phenyl-1H-pyrazol-4-yl)pyrazolo[1,5-a]pyrimidin-5-yl)-1-(2-methoxyethoxy)-N-(2-methoxyethyl)-cyclohexane-carboxamide] | 100 to 1000 | 1 to 100 | 1000 to 2000 |
| COCCO[C@]1(C(=O)O)CC[C@@H](c2nc3c(-c4ccc(-c5ccccc5)nc4)cnn3c(N)c2Br)CC1 [Compound 64, (1R,4R)-4-(7-amino-6-bromo-3-(6-phenylpyridin-3-yl)pyrazolo[1,5-a]pyrimidin-5-yl)-1-(2-methoxyethoxy)cyclohexanecarboxylic acid] | 100 to 1000 | 1 to 100 | 100 to 1000 |
| COCCO[C@]1(C(=O)N2CCC(=O)N2)CC[C@@H](c2nc3c(-c4cnn(-c5ccccc5)c4)cnn3c(N)c2S(C)(=O)=O)CC1 [Compound 95, 1-((1R,4R)-4-(7-amino-6-(methylsulfonyl)-3-(1-phenyl-1H-pyrazol-4-yl)pyrazolo[1,5-a]pyrimidin-5-yl)-1-(2-methoxyethoxy)cyclohexanecarbonyl)-pyrazolidin-3-one] | 100 to 1000 | 1 to 100 | 100 to 1000 |
| COCCO[C@]1(C(=O)O)CC[C@H](c2nc3c(-c4cnn(-c5ccccc5)c4)cnn3c(N)c2S(C)(=O)=O)CC1 [Compound 41, (1S,4S)-4-(7-amino-6-(methylsulfonyl)-3-(1-phenyl-1H-pyrazol-4-yl)pyrazolo[1,5-a]pyrimidin-5-yl)-1-(2-methoxyethoxy)-cyclohexanecarboxylic acid] | 5000 to 15000 | 1 to 100 | 5000 to 15000 |
| COCCO[C@]1(C(=O)NOCCO)CC[C@@H](c2nc3c(-c4cnn(-c5ccccc5)c4)cnn3c(N)c2S(C)(=O)=O)CC1 [Compound 100] | 1 to 100 | 1 to 100 | 1 to 100 |
| COCCO[C@]1(C(=O)NN2CCOCC2)CC[C@@H](c2nc3c(-c4cnn(-c5ccccc5)c4)cnn3c(N)c2S(C)(=O)=O)CC1 [Compound 96, (1R,4R)-4-(7-amino-6-(methylsulfonyl)-3-(1-phenyl-1H-pyrazol-4-yl)pyrazolo[1,5-a]pyrimidin-5-yl)-1-(2-methoxyethoxy)-N-morpholinocyclohexane-carboxamide] | 100 to 1000 | 1 to 100 | 1000 to 2000 |
| COCCO[C@]1(C(=O)NO)CC[C@@H](c2nc3c(-c4ccc(-c5ccccc5)nc4)cnn3c(N)c2C(C)=O)CC1 [Compound 102, (1R,4R)-4-(6-acetyl-7-amino-3-(6-phenylpyridin-3-yl)pyrazolo[1,5-a]pyrimidin-5-yl)-N-hydroxy-1-(2-methoxyethoxy)-cyclohexane-carboxamide] | 100 to 1000 | 1 to 100 | 100 to 1000 |
| CO[C@]1(C(=O)O)CC[C@H](c2nc3c(-c4cnn(-c5ccccc5)c4)cnn3c(N)c2C(C)=O)CC1 [Compound 37, (1S,4S)-4-(6-acetyl-7-amino-3-(1-phenyl-1H-pyrazol-4-yl)pyrazolo[1,5-a]pyrimidin-5-yl)-1-methoxycyclohexane-carboxylic acid] | 1 to 100 | 1 to 100 | 100 to 1000 |

Results, then the molecule that gave them:

| IC50 [1] [nM] | IC50 [2] [nM] | IC50 [3] [nM] | SMILES |
| --- | --- | --- | --- |
| 100 to 1000 | 1 to 100 | 100 to 1000 | CC(=O)c1c(C2CCC(O)(CNS(C)(=O)=O)CC2)nc2c(-c3ccc(-c4ccccc4)nc3)cnn2c1N (stereo not drawn) [Compound 160, N-((4-(6-acetyl-7-amino-3-(6-phenylpyridin-3-yl)pyrazolo[1,5-a]pyrimidin-5-yl)-1-hydroxycyclohexyl)methyl)methanesulfonamide] |
| 1000 to 2000 | 1 to 100 | 2000 to 5000 | Nc1c(Br)c(C2CCC(O)(C(=O)O)CC2)nc2c(-c3ccc(-c4ccccc4)nc3)cnn12 (stereo not drawn) [Compound 131, 4-(7-amino-6-bromo-3-(6-phenylpyridin-3-yl)pyrazolo[1,5-a]pyrimidin-5-yl)-1-hydroxycyclohexanecarboxylic acid] |
| 1 to 100 | 1 to 100 | 100 to 1000 | CC(=O)c1c(N)n2ncc(-c3ccc(-c4ccccc4)nc3)c2nc1[C@H]1CC[C@](O)(CO)CC1 [Compound 140, 1-(7-amino-5-((1S,4S)-4-hydroxy-4-(hydroxymethyl)cyclohexyl)-3-(6-phenylpyridin-3-yl)pyrazolo[1,5-a]pyrimidin-6-yl)ethanone] |
| 100 to 1000 | 1 to 100 | 100 to 1000 | COCCO[C@]1(c2nnc[nH]2)CC[C@@H](c2nc3c(-c4ccc(-c5ccccc5)nc4)cnn3c(N)c2S(C)(=O)=O)CC1 [Compound 128] |
| 100 to 1000 | 1 to 100 | 100 to 1000 | COCCO[C@]1(c2noc(=O)[nH]2)CC[C@@H](c2nc3c(-c4cnn(-c5ccccc5)c4)cnn3c(N)c2S(C)(=O)=O)CC1 [Compound 121, 3-((1R,4R)-4-(7-amino-6-(methylsulfonyl)-3-(1-phenyl-1H-pyrazol-4-yl)pyrazolo[1,5-a]pyrimidin-5-yl)-1-(2-methoxyethoxy)cyclohexyl)-1,2,4-oxadiazol-5(4H)-one] |
| 100 to 1000 | 1 to 100 | 100 to 1000 | COCCO[C@]1(c2nnc[nH]2)CC[C@@H](c2nc3c(-c4cnn(-c5ccccc5)c4)cnn3c(N)c2S(C)(=O)=O)CC1 [Compound 127, 5-((1R,4R)-4-(2-methoxyethoxy)-4-(4H-1,2,4-triazol-3-yl)cyclohexyl)-6-(methylsulfonyl)-3-(1-phenyl-1H-pyrazol-4-yl)pyrazolo[1,5-a]pyrimidin-7-amine] |
| 100 to 1000 | 1 to 100 | 100 to 1000 | CC(=O)c1c(C2CCC(O)(CO)CC2)nc2c(-c3cnc(-c4ccccc4)nc3)cnn2c1N (stereo not drawn) [Compound 158, 1-(7-amino-5-(4-hydroxy-4-(hydroxymethyl)-cyclohexyl)-3-(2-phenylpyrimidin-5-yl)pyrazolo[1,5-a]pyrimidin-6-yl)ethanone] |
| 100 to 1000 | 1 to 100 | 100 to 1000 | COCCO[C@]1(C(=N)N)CC[C@@H](c2nc3c(-c4cnn(-c5ccccc5)c4)cnn3c(N)c2S(C)(=O)=O)CC1 [Compound 120, (1R,4R)-4-(7-amino-6-(methylsulfonyl)-3-(1-phenyl-1H-pyrazol-4-yl)pyrazolo[1,5-a]pyrimidin-5-yl)-1-(2-methoxyethoxy)cyclohexanecarboximidamide] |
| 100 to 1000 | 1 to 100 | 1000 to 2000 | COCCO[C@]1(C#N)CC[C@@H](c2nc3c(-c4cnn(-c5ccccc5)c4)cnn3c(N)c2S(C)(=O)=O)CC1 [Compound 117, (1R,4R)-4-(7-amino-6-(methylsulfonyl)-3-(1-phenyl-1H-pyrazol-4-yl)pyrazolo[1,5-a]pyrimidin-5-yl)-1-(2-methoxyethoxy)cyclohexanecarbonitrile] |
